tested on: Human prostate cancer cell lines (PC-3 cells); experiment: Measurement of cell death-inducing activity (Test Example 1); assay type: cell-based; details: PC-3, 48 h, 48 hours after addition, tested at 10, 1, 0.1, 0.025 and 0.00625 μmol/L, qualitative evaluation of 10 fields, read-out: Concentration showing the cell death-inducing activity (cell death-inducing rate not less than 40%)
Procedure: The cell death-inducing activity of the compound represented by the formula (1) or the salt thereof was measured as follows.
Human prostate cancer cell lines (PC-3 cells) were seeded to 6-well plates at 1×10^5 cells/2 mL/well, and cultured in the presence of 5% CO2 at 37° C. for 48 hours. Thereafter, each compound was added thereto so as to provide 10, 1, 0.1, 0.025 and 0.00625 μmol/L. As a control, DMSO was added. After the addition, the cells were continuously cultured for 48 hours. […] When the cell death-inducing rate was not less than 40%, the compound was judged to have the cell death-inducing activity.

Compared with `COc1cc(F)ccc1-c1nc(C)c(NC(=O)OCc2ccc3c(c2)ncn3C(C)C)s1` [Example 9-70], `COc1cc(Cl)ccc1-c1nc(C)c(NC(=O)OCc2ccc3c(c2)ncn3C(C)C)s1` [Example 9-71] is 4-fold lower in minimal effective concentration: 0.1 µM for the first, 0.025 µM for the second.

Compared with `COc1ccc(-c2nc(C)c(NC(=O)OCc3ccc4c(c3)ncn4C(C)C)s2)c(OC)c1` [Example 9-72], `COc1ccc(-c2nc(C)c(NC(=O)OCc3ccc4nn(C)cc4c3)s2)c(OC)c1` [Example 9-146] is 10-fold lower in minimal effective concentration: 1 µM for the first, 0.1 µM for the second.

`COc1ccccc1-c1nc(C)c(NC(=O)OCc2ccc3c(c2)nc(C)n3C)s1` [Example 9-74] and `CCn1c(C)nc2cc(COC(=O)Nc3sc(-c4ccccc4OC)nc3C)ccc21` [Example 9-85] are the same in minimal effective concentration: 1 µM for the first, 1 µM for the second.

Going from `COc1cc(F)ccc1-c1nc(C)c(NC(=O)OCc2ccc3c(c2)nc(C)n3C)s1` [Example 9-75] to `COc1cc(Cl)ccc1-c1nc(C)c(NC(=O)OCc2ccc3c(c2)nc(C)n3C)s1` [Example 9-76], the minimal effective concentration falls from 0.1 µM to 0.025 µM (4-fold).

`COc1cc(C)ccc1-c1nc(C)c(NC(=O)OCc2ccc3c(c2)nc(C)n3C)s1` [Example 9-77] and `CCn1c(C)nc2cc(COC(=O)Nc3sc(-c4ccc(C)cc4OC)nc3C)ccc21` [Example 9-87] are the same in minimal effective concentration: 0.025 µM for the first, 0.025 µM for the second.

Compared with `Cc1ccc(-c2nc(C)c(NC(=O)OCc3ccc4c(c3)nc(C)n4C)s2)c(C)c1` [Example 9-78], `Cc1cc(F)ccc1-c1nc(C)c(NC(=O)OCc2ccc3c(c2)nc(C)n3C)s1` [Example 9-80] is 4-fold higher in minimal effective concentration: 0.025 µM for the first, 0.1 µM for the second.

First: Cc1nc(-c2ccc(F)cc2Cl)sc1NC(=O)OCc1ccc2c(c1)nc(C)n2C [Example 9-79]
Second: Cc1cc(Cl)ccc1-c1nc(C)c(NC(=O)OCc2ccc3c(c2)nc(C)n3C)s1 [Example 9-81]
The minimal effective concentration of the first is 4-fold higher: 0.1 µM for the first, 0.025 µM for the second.

`CCc1nc2cc(COC(=O)Nc3sc(-c4ccc(Cl)cc4OC)nc3C)ccc2n1C` [Example 9-82] and `CCn1c(C)nc2cc(COC(=O)Nc3sc(-c4ccc(Cl)cc4OC)nc3C)ccc21` [Example 9-86] are the same in minimal effective concentration: 0.025 µM for the first, 0.025 µM for the second.

`CCc1nc2cc(COC(=O)Nc3sc(-c4ccc(C)cc4C)nc3C)ccc2n1C` [Example 9-83] and `CCn1c(C)nc2cc(COC(=O)Nc3sc(-c4ccc(C)cc4C)nc3C)ccc21` [Example 9-88] are the same in minimal effective concentration: 0.1 µM for the first, 0.1 µM for the second.

Compared with `CCc1ccccc1-c1nc(C)c(NC(=O)OCc2ccc3c(c2)nc(C)n3CC)s1` [Example 9-84], `CCc1ccccc1-c1nc(C)c(NC(=O)OCc2ccc3c(cnn3CC)c2)s1` [Example 9-133] is 10-fold lower in minimal effective concentration: 1 µM for the first, 0.1 µM for the second.

`CCc1ccccc1-c1nc(C)c(NC(=O)OCc2ccc3c(c2)nc2n3CCOC2)s1` [Example 9-90] and `CCc1ccccc1-c1nc(C)c(NC(=O)OCc2ccc3c(c2)nc2n3CCC2)s1` [Example 9-100] are the same in minimal effective concentration: 0.1 µM for the first, 0.1 µM for the second.

Going from `COc1ccccc1-c1nc(C)c(NC(=O)OCc2ccc3c(c2)nc2n3CCOC2)s1` [Example 9-91] to `COc1ccccc1-c1nc(C)c(NC(=O)OCc2ccc3c(c2)nc2n3CCC2)s1` [Example 9-101], the minimal effective concentration rises from 0.025 µM to 0.1 µM (4-fold).

`COc1cc(F)ccc1-c1nc(C)c(NC(=O)OCc2ccc3c(c2)nc2n3CCOC2)s1` [Example 9-92] and `COc1cc(Cl)ccc1-c1nc(C)c(NC(=O)OCc2ccc3c(c2)nc2n3CCOC2)s1` [Example 9-93] are the same in minimal effective concentration: 0.00625 µM for the first, 0.00625 µM for the second.

Compared with `COc1ccc(-c2nc(C)c(NC(=O)OCc3ccc4c(c3)nc3n4CCOC3)s2)c(OC)c1` [Example 9-95], `Cc1ccc(-c2nc(C)c(NC(=O)OCc3ccc4c(c3)nc3n4CCOC3)s2)c(C)c1` [Example 9-96] is 4-fold lower in minimal effective concentration: 0.025 µM for the first, 0.00625 µM for the second.

Compared with `Cc1cc(F)ccc1-c1nc(C)c(NC(=O)OCc2ccc3c(c2)nc2n3CCOC2)s1` [Example 9-97], `Cc1cc(Cl)ccc1-c1nc(C)c(NC(=O)OCc2ccc3c(c2)nc2n3CCOC2)s1` [Example 9-98] is 4-fold lower in minimal effective concentration: 0.025 µM for the first, 0.00625 µM for the second.

`Cc1ccccc1-c1nc(C)c(NC(=O)OCc2ccc3c(c2)nc2n3CCC2)s1` [Example 9-99] and `CCc1ccccc1-c1nc(C)c(NC(=O)OCc2ccc3c(c2)nc2n3CCCC2)s1` [Example 9-109] are the same in minimal effective concentration: 1 µM for the first, 1 µM for the second.

`CCc1cc(F)ccc1-c1nc(C)c(NC(=O)OCc2ccc3c(c2)nc2n3CCC2)s1` [Example 9-102] and `Cc1cc(F)ccc1-c1nc(C)c(NC(=O)OCc2ccc3c(c2)nc2n3CCC2)s1` [Example 9-106] are the same in minimal effective concentration: 0.025 µM for the first, 0.025 µM for the second.

Compared with `COc1cc(Cl)ccc1-c1nc(C)c(NC(=O)OCc2ccc3c(c2)nc2n3CCC2)s1` [Example 9-103], `COc1cc(C)ccc1-c1nc(C)c(NC(=O)OCc2ccc3c(c2)nc2n3CCC2)s1` [Example 9-104] is 16-fold higher in minimal effective concentration: 0.00625 µM for the first, 0.1 µM for the second.

Going from `Cc1cc(Cl)ccc1-c1nc(C)c(NC(=O)OCc2ccc3c(c2)nc2n3CCC2)s1` [Example 9-107] to `Cc1cc(Cl)ccc1-c1nc(C)c(NC(=O)OCc2ccc3c(c2)nc2n3CCCC2)s1` [Example 9-115], the minimal effective concentration rises from 0.025 µM to 0.1 µM (4-fold).

`Cc1ccc(-c2nc(C)c(NC(=O)OCc3ccc4c(c3)nc3n4CCC3)s2)c(C)c1` [Example 9-108] and `Cc1ccc(-c2nc(C)c(NC(=O)OCc3ccc4c(c3)nc3n4CCCC3)s2)c(C)c1` [Example 9-113] are the same in minimal effective concentration: 0.025 µM for the first, 0.025 µM for the second.

First: COc1ccccc1-c1nc(C)c(NC(=O)OCc2ccc3c(c2)nc2n3CCCC2)s1 [Example 9-110]
Second: COc1cc(F)ccc1-c1nc(C)c(NC(=O)OCc2ccc3c(c2)nc2n3CCCC2)s1 [Example 9-111]
The minimal effective concentration of the first is 10-fold higher: 1 µM for the first, 0.1 µM for the second.

Going from `COc1cc(C)ccc1-c1nc(C)c(NC(=O)OCc2ccc3c(c2)nc2n3CCCC2)s1` [Example 9-112] to `Cc1ccc(-c2nc(C)c(NC(=O)OCc3ccc4c(c3)nc3n4CCCCC3)s2)c(C)c1` [Example 9-124], the minimal effective concentration rises from 0.1 µM to 10 µM (100-fold).

`COc1cc(F)ccc1-c1nc(C)c(NC(=O)OCc2ccc3c(c2)nc2n3C(C)CCC2)s1` (stereo not shown) [Example 9-116] and `Cc1ccc(-c2nc(C)c(NC(=O)OCc3ccc4c(c3)nc3n4C(C)CCC3)s2)c(C)c1` (stereo not shown) [Example 9-118] are the same in minimal effective concentration: 10 µM for the first, 10 µM for the second.

Compared with `Cc1cc(Cl)ccc1-c1nc(C)c(NC(=O)OCc2ccc3c(c2)nc2n3C(C)CCC2)s1` (stereo not shown) [Example 9-119], `COc1cc(Cl)ccc1-c1nc(C)c(NC(=O)OCc2ccc3c(c2)nc2n3CCC(C)C2)s1` (stereo not shown) [Example 9-120] is 100-fold lower in minimal effective concentration: 10 µM for the first, 0.1 µM for the second.

`COc1cc(C)ccc1-c1nc(C)c(NC(=O)OCc2ccc3c(c2)nc2n3CCC(C)C2)s1` (stereo not shown) [Example 9-121] and `Cc1ccc(-c2nc(C)c(NC(=O)OCc3ccc4c(c3)nc3n4CCC(C)C3)s2)c(C)c1` (stereo not shown) [Example 9-122] are the same in minimal effective concentration: 1 µM for the first, 1 µM for the second.

Going from `CCc1ccccc1-c1nc(C)c(NC(=O)OCc2ccc3c(cnn3C)c2)s1` [Example 9-125] to `COc1ccccc1-c1nc(C)c(NC(=O)OCc2ccc3c(cnn3C)c2)s1` [Example 9-126], the minimal effective concentration falls from 1 µM to 0.1 µM (10-fold).

First: COc1cc(F)ccc1-c1nc(C)c(NC(=O)OCc2ccc3c(cnn3C)c2)s1 [Example 9-127]
Second: COc1cc(Cl)ccc1-c1nc(C)c(NC(=O)OCc2ccc3c(cnn3C)c2)s1 [Example 9-128]
The minimal effective concentration of the first is 16-fold higher: 0.1 µM for the first, 0.00625 µM for the second.

`COc1cc(C)ccc1-c1nc(C)c(NC(=O)OCc2ccc3c(cnn3C)c2)s1` [Example 9-129] and `CCn1ncc2cc(COC(=O)Nc3sc(-c4ccc(C)cc4OC)nc3C)ccc21` [Example 9-137] are the same in minimal effective concentration: 0.00625 µM for the first, 0.00625 µM for the second.

`Cc1ccc(-c2nc(C)c(NC(=O)OCc3ccc4c(cnn4C)c3)s2)c(C)c1` [Example 9-130] and `CCn1ncc2cc(COC(=O)Nc3sc(-c4ccc(C)cc4C)nc3C)ccc21` [Example 9-139] are the same in minimal effective concentration: 0.025 µM for the first, 0.025 µM for the second.

First: Cc1nc(-c2ccc(F)cc2Cl)sc1NC(=O)OCc1ccc2c(cnn2C)c1 [Example 9-131]
Second: CCn1ncc2cc(COC(=O)Nc3sc(-c4ccc(F)cc4C)nc3C)ccc21 [Example 9-140]
The minimal effective concentration of the first is 4-fold higher: 0.1 µM for the first, 0.025 µM for the second.

`CCn1ncc2cc(COC(=O)Nc3sc(-c4ccccc4OC)nc3C)ccc21` [Example 9-134] and `CCn1ncc2cc(COC(=O)Nc3sc(-c4ccc(F)cc4OC)nc3C)ccc21` [Example 9-135] are the same in minimal effective concentration: 0.025 µM for the first, 0.025 µM for the second.

First: CCn1ncc2cc(COC(=O)Nc3sc(-c4ccc(Cl)cc4OC)nc3C)ccc21 [Example 9-136]
Second: CCn1ncc2cc(COC(=O)Nc3sc(-c4ccc(Cl)cc4C)nc3C)ccc21 [Example 9-141]
The minimal effective concentration of the first is 4-fold lower: 0.00625 µM for the first, 0.025 µM for the second.

`CCn1ncc2cc(COC(=O)Nc3sc(-c4ccc(OC)cc4OC)nc3C)ccc21` [Example 9-138] and `COc1cc(C)ccc1-c1nc(C)c(NC(=O)OCc2ccc3nn(C)cc3c2)s1` [Example 9-145] are the same in minimal effective concentration: 0.025 µM for the first, 0.025 µM for the second.

First: CCc1ccccc1-c1nc(C)c(NC(=O)OCc2ccc3nn(C)cc3c2)s1 [Example 9-142]
Second: Cc1ccc(-c2nc(C)c(NC(=O)OCc3ccc4nn(C)cc4c3)s2)c(C)c1 [Example 9-147]
The minimal effective concentration of the first is 4-fold higher: 0.1 µM for the first, 0.025 µM for the second.

`COc1cc(F)ccc1-c1nc(C)c(NC(=O)OCc2ccc3nn(C)cc3c2)s1` [Example 9-143] and `COc1cc(Cl)ccc1-c1nc(C)c(NC(=O)OCc2ccc3nn(C)cc3c2)s1` [Example 9-144] are the same in minimal effective concentration: 0.025 µM for the first, 0.025 µM for the second.
